{"source": "patent US11491169B2", "about": "“Remdesivir treatment methods” (Gilead Sciences, Inc., priority 2020, dated 2022)", "key": {"[1]": {"details": "doses recommended under the former EUA guidance for COVID-19; cited from earlier work"}, "[2]": {"test_system": "A549-hACE2 cells", "details": "for Mean RDV-TP: human, 1 μM"}, "[3]": {"test_system": "NHBE cultures"}, "[4]": {"test_system": "HEp-2 cells"}, "[5]": {"test_system": "SARS-CoV-2", "assay": "SARS-CoV-2 Nluc antiviral assay in A549-hACE2 cells", "assay_type": "cell-based", "details": "for Nluc signal (SARS-CoV-2 replication): 10 μM of CQ or HCQ alone"}, "[6]": {"test_system": "HEp-2 cells", "assay": "Formula Ia triphosphate (RDV-TP) formation in HEp-2 cells, LC-MS/MS", "details": "2 h"}, "[7]": {"test_system": "respiratory syncytial virus (RSV)", "assay": "microbe, parasite or virus in culture", "assay_type": "cell-based", "details": "human respiratory syncytial virus, HEp-2, read-out: Formula Ia RSV EC50, HEp2 cells", "description": "The cells were then infected with RSV A2 virus diluted in DMEM medium+GlutaMAX at an MOI=4 and incubated for 4 days at 37° C. and 5% CO2. The final volume in each well was 200 μL. Uninfected and untreated wells were included as controls for 100% cell viability. Following the incubation, 100 μL of culture supernatant was removed from each well and replaced with 100 μL of CellTiter-Glo reagent (Promega). The plates were then rocked for 2 minutes followed by a 10-minute incubation at 25° C. Cell viability was then assessed by measuring luminescence signal using and Envision plate reader. Values were normalized to the uninfected and infected DMSO controls (as 100% and 0% […], respectively) and data was fit using non-linear regression analysis with the XLfit software."}, "[8]": {"test_system": "A549-hACE2 cells", "details": "Formula Ia and HCQ combination concentrations analyzed (data not shown)"}, "[9]": {"details": "Severe acute respiratory syndrome coronavirus 2, read-out: SARS-CoV-2 Nluc EC50, A549-hACE2 cells, single agent + DMSO"}}, "note": "Read-outs that look alike come from different tables or passages of the source."}
{"smiles": "CCN(CC)CCCC(C)Nc1ccnc2cc(Cl)ccc12", "note": "(centres unmarked) [CQ, N′-(7-chloroquinolin-4-yl)-N,N-diethyl-pentane-1,4-diamine, reference compound]", "values": [{"measurement": "Average systemic exposures", "setting": "[1]", "value": "610 to 760", "unit": "nM"}, {"measurement": "Effect on Formula Ia-TP levels", "setting": "[2]", "value": "did not significantly reduce"}, {"measurement": "Effect on production of Formula Ia-TP", "setting": "[2]", "value": "did significantly lower"}, {"measurement": "Effect on Formula Ia-TP levels", "setting": "[3]", "value": "not statistically significant"}, {"measurement": "Effect on formation of intracellular Formula Ia-TP", "setting": "[4]", "value": "dose-dependent reduction"}, {"measurement": "Nluc signal (SARS-CoV-2 replication)", "setting": "[5]; A549-hACE2 cells", "value": "fully suppressed"}, {"measurement": "EC50", "setting": "[5]; [9]", "value": "~451", "unit": "nM"}]}
{"smiles": "CCC(CC)COC(=O)[C@H](C)N[P@](=O)(OC[C@H]1O[C@@](C#N)(c2ccc3c(N)ncnn23)[C@H](O)[C@@H]1O)Oc1ccccc1", "note": "[Formula Ia, (S)-2-ethylbutyl 2-(((S)-(((2R,3S,4R,5R)-5-(4-aminopyn-olo[2,1-f][1,2,4]triazin-7-yl)-5-cyano-3,4-dihydroxytetrahydrofuran-2-yl)methoxy)(phenoxy)phosphoryl)amino)propanoate]", "values": [{"measurement": "Mean RDV-TP", "setting": "[6]; 1 μM Formula Ia + 1 μM CQ", "value": "BLQ"}, {"measurement": "Mean RDV-TP", "setting": "[6]; 1 μM Formula Ia + 1 μM HCQ", "value": "BLQ"}, {"measurement": "Mean RDV-TP", "setting": "[6]; 1 μM Formula Ia + 10 μM CQ", "value": "BLQ"}, {"measurement": "Mean RDV-TP", "setting": "[6]; 1 μM Formula Ia + 10 μM HCQ", "value": "BLQ"}, {"measurement": "Mean RDV-TP", "setting": "[6]; 1 μM Formula Ia alone", "value": "BLQ"}, {"measurement": "EC50", "setting": "[7]; chloroquine 0 nM", "value": "49.5 ± 13.1", "unit": "nM"}, {"measurement": "EC50", "setting": "[7]; chloroquine 10 nM", "value": "58.4 ± 12.8", "unit": "nM"}, {"measurement": "EC50", "setting": "[7]; chloroquine 40 nM", "value": "72.1 ± 24.8", "unit": "nM"}, {"measurement": "EC50", "setting": "[7]; chloroquine 160 nM", "value": "99.6 ± 30.3", "unit": "nM"}, {"measurement": "EC50", "setting": "[7]; chloroquine 640 nM", "value": "138 ± 33.8", "unit": "nM"}, {"measurement": "EC50", "setting": "[7]; chloroquine 2560 nM", "value": "209 ± 18.2", "unit": "nM"}, {"measurement": "Mean RDV-TP", "setting": "[2]; 2 h", "value": "3.6 ± 0.2", "unit": "pmol/million cells"}, {"measurement": "Mean RDV-TP", "setting": "[2]; 24 h", "value": "6.8 ± 1.3", "unit": "pmol/million cells"}, {"measurement": "Mean RDV-TP", "setting": "[2]; 48 h", "value": "3.0 ± 0.5", "unit": "pmol/million cells"}, {"measurement": "EC50", "setting": "[5]; read-out: SARS-CoV-2 Nluc EC50, A549-hACE2 cells, + 10 nm HCQ", "value": 63.6, "unit": "nM"}, {"measurement": "EC50", "setting": "[5]; read-out: SARS-CoV-2 Nluc EC50, A549-hACE2 cells, + 40 nm HCQ", "value": 50.7, "unit": "nM"}, {"measurement": "EC50", "setting": "[5]; read-out: SARS-CoV-2 Nluc EC50, A549-hACE2 cells, + 640 nm CQ", "value": 46, "unit": "nM"}, {"measurement": "EC50", "setting": "[5]; read-out: SARS-CoV-2 Nluc EC50, A549-hACE2 cells, + 2500 nm HCQ", "value": 63, "unit": "nM"}]}
{"smiles": "CCN(CCO)CCCC(C)Nc1ccnc2cc(Cl)ccc12", "note": "(centres unmarked) [HCQ, 2-[{4-[(7-chloroquinolin-4-yl)amino]pentyl}(ethyl)amino]ethanol, reference compound]", "values": [{"measurement": "Average systemic exposures", "setting": "[1]", "value": "approximately 1.7 μM"}, {"measurement": "Cytotoxicity", "setting": "[8]", "value": "not observed"}, {"measurement": "Nluc signal (SARS-CoV-2 replication)", "setting": "[5]; A549-hACE2 cells", "value": "fully suppressed"}, {"measurement": "EC50", "setting": "[5]; [9]", "value": "~365", "unit": "nM"}]}
